These results are taken from patent US9023812B2, “Neuroprotective ganglioside compositions for use in treating huntington's disease” (The Governors of the University of Alberta, priority 2009, dated 2015).

Data set [1] deals with STHdh^111Q/111Q cells. The data set is described as follows: Induction and measurement of apoptosis (annexin V binding / active caspase-3, FACS) in HD knock-in striatal cells. The settings on record: for protection from apoptosis (annexin V binding, caspase 3 activation): 0.1-1-5-10-20 μM Liga20, knock-in striatal cells WT or HD, FIG. 13.
Method: Conditionally-immortalized rat striatal ST14A cells and ST14A cells expressing an N-terminal fragment of mHtt containing 120 glutamines (N548-120Q) were kindly provided by Dr. E. Cattaneo (University of Milan, Italy) and maintained in culture at the permissive temperature (33° C.) as previously reported (Rigamonti et al., 2001). Conditionally-immortalized mouse striatal knock-in cells expressing endogenous levels of wild-type (STHdh^Q7/Q7) or mHtt (STHdh^Q111/Q111) were a gift from Dr. M. E. MacDonald (Massachusetts General Hospital, Boston, Mass., USA) and were maintained as previously described (Trettel et al., 2000).
In order to induce apoptosis immortalized cells were incubated at 39° C. […] For apoptosis detection, at the end of each treatment cells were collected, washed with PBS and incubated with PE-conjugated annexin V (BD Biosciences) according to the manufacturer's instructions. For the simultaneous detection of active caspase-3 and annexin V binding, cells were first labeled with annexin V as indicated above, then fixed in 4% paraformaldehyde and permeabilized with 0.3% saponin in PBS containing 4% donkey serum.
GM1 (Alexis) at the indicated concentrations was added to the cells in serum-free medium at the time when cells were shifted at 39° C. to induce apoptosis.
K252a (200 nM, Calbiochem) was used to inhibit TrK receptor-mediated signaling. […] Both inhibitors were administered to the cells 2 hours before induction of apoptosis and administration of GM1.
For data set [2] the following is noted: Wu et al., 2004; cited from earlier work.
For data set [3], the system named is STHdh^7Q/7Q cells. The experiment in a line: Induction and measurement of apoptosis (annexin V binding / active caspase-3, FACS) in wild-type knock-in striatal cells. The class given is cell-based, mouse. As for the experimental part:
To inhibit ganglioside synthesis, wild-type cells were incubated for 3 days in medium containing 10 μM 1-phenyl-2-palmitoylamino-3-morpholino-1-propanol (PPMP, Matreya, Pleasant Gap, Pa., USA). Cells were then washed two times with PBS and incubated for 12 hours at 39° C. in serum-free medium to induce apoptosis.

For data set [4], the system named is Htt phosphorylation at Ser13 and S16. The data set is described as follows: PPMP treatment and immunoblotting of total and phospho-Htt in striatal knock-in cells. The data set is classed as cell-based, mouse. The settings on record: 10 μM PPMP for 3 days. As for the experimental part:
Knock-in striatal cells expressing wild-type Htt (7/7) or mHtt (111/111) (Trettel, F., et al. (2000)) were incubated for 3 days in medium containing 10 μM 1-phenyl-2-palmitoylamino-3-morpholino-1-propanol (PPMP, Matreya, Pleasant Gap, Pa., USA) to inhibit ganglioside synthesis. Cells were then washed two times with PBS and lysed in 50 mM Tris, 1% NP-40, 1 mM EDTA, 10 mM NaF, 1 mM Na2VO4 and 1:100 protease inhibitor cocktail (SIGMA-Aldrich). […] HRP-conjugated secondary antibodies were used at 1:3,000 dilution (Bio-Rad Laboratories, Hercules, Calif., USA). Protein bands were detected by ECL Plus and quantitated with Quantity One® software (Bio-Rad Laboratories, Hercules, Calif., USA).
In these experiments, synthesis of gangliosides was inhibited in striatal knock-in cells with PPMP, as above. Levels of total and phospho-Htt were detected in total cell lysates using immunoblotting (Panel A) with mAb2166 and N17pS13pS16 antibody, respectively. Panel B is a graph is the densitometric analysis of the immunoblot show in Panel A.
In general terms: Immunoblotting shows a protein as a band on a membrane.

Data set [5] has as its system STHdh^7Q/7Q cells. The data set is classed as cell-based, mouse.
Data set [6] concerns Htt phosphorylation at Ser13 and Ser16. The data set is described as follows: Htt phosphorylation in cerebral cortex homogenate of GM1- and CSF-infused mice (immunoblotting, pSer13Ser16 antibody). The data set is classed as in vivo, mouse. The settings on record: YAC128 and WT littermates infused for 28 days. The procedure: At the end of the GM1 infusion protocol (28 days after peristaltic pump implantation), mice were euthanized. Brain cortices were dissected and homogenized in 50 mM Tris, 1% NP40, 1 mM EDTA, 10 mM NaF, 1 mM Na2VO4 and 1:100 protease inhibitor cocktail (SIGMA-Aldrich). […] Alexa680-conjugated secondary antibody were used at 1:1,000 dilution in Odyssey buffer. Imaging and analysis were performed using and Odyssey Infrared System (LiCor).
Subsequent to the experimental protocol on animals described above, the mouse brains were dissected and homogenized to examine Htt phosphorylation at Ser13 and Ser16.
In FIG. 20, YAC128 mice and WT littermates infused with CSF (vehicle) or GM1 for 28 days were sacrificed and the amount of phospho-Htt in the same amount of cerebral cortex homogenate was detected by immunoblotting with a pSer13Ser16 specific antibody.

In the next data set the test system is AKT. The experiment in a line: AKT activation (phospho-AKT/AKT ratio) by immunoblotting in striatal knock-in cells. The data set is classed as cell-based, mouse. The following applies: for phospho-AKT/AKT ratio: 7 minutes and 6 hours after addition of GM1, serum-free medium at 39° C. The procedure: FIG. 7—GM1 protective effect on striatal cells is partially mediated by AKT activation. A) Akt phosphorylation was measured 7 minutes and 6 hours after addition of GM1 in serum-free medium and incubation at 39° C. to induce cell death. Analysis of phospho-AKT/AKT ratio, indicative of AKT activation, was performed by densitometric analysis of immunoblots in three independent experiments. In each experiment, the pospho-AKT/AKT ratio measured in wild-type untreated cells (control) was arbitrarily set to 100% to which HD and GM1-treated samples were compared. Mean values±SD and representative immunoblots are shown. […] The percentage of apoptotic cells was measured by annexin V binding. Data are the mean±SD of 3 experiments, each performed in triplicate. 7/7, STHdh^7Q/7Q; 111/111, STHdh^111Q/111Q; *, p<0.05; **, p<0.001; ***, p<0.0001
Cells were scraped in 10 mM Tris-HCl, pH 7.4, containing 1% NP40, 10 mM NaF, 1 mM Na2VO4 and 1:100 protease inhibitor cocktail (SIGMA-Aldrich, St. Louis, Mo., USA) and lysed by sonication followed by incubation on ice for 30 minutes. Cell debris were removed by centrifugation at 15,000×g for 15 minutes. Protein concentration in the supernatant was measured by BCA assay (Pierce). Thirty μg of proteins were resolved on 10% SDS-PAGE and transferred to nitrocellulose membranes (Bio-Rad Laboratories, Hercules, Calif., USA). Membranes were blocked with 5% non-fat milk in TBS-T (50 mM Tris-HCl, 150 mM NaCl, pH 7.4, 0.1% Tween 20) for 1 hour and then probed overnight with primary antibodies: anti-phospho-AKT (Ser473) (1:500), anti-AKT (1:500) (both from Cell Signaling), Abcam). HRP-conjugated secondary antibodies were used at 1:3,000 dilution (Bio-Rad Laboratories, Hercules, Calif., USA). Protein bands were detected by ECL Plus (Amersham Biosciences) and analyzed with Quantity One® software (Bio-Rad Laboratories, Hercules, Calif., USA).

The subject of a further data set is mHtt. The experiment in a line: Huntingtin immunoprecipitation and immunoblotting with anti-phospho-Ser antibody. The data set is classed as cell-based, mouse. The settings on record: STHdh^111Q/111Q cells, 50 μM GM1 for 5 minutes.
The test system of the next data set is wild-type mice. The experiment in a line: Motor behavior (rotarod and horizontal ladder task) during chronic intraventricular GM1 infusion in wild-type littermates. The following applies: intraventricular infusion for 28 days. (In general: In the rotarod test animals must keep their balance on a rotating rod.)
Data set [7] relates to STHdh^111Q/111Q cells. The data set is classed as cell-based, mouse. The settings on record: 50 μM GM1, HD cells, FIG. 5C.
For the next data set, the system named is YAC128 mice. The experiment in a line: Motor behavior (rotarod and horizontal ladder task) during chronic intraventricular GM1 infusion in YAC128 mice.
For data set [8] the following is noted: cited from earlier work.

Method for YAC128 mice: (§1) The pump infused a solution of 5.6 mg GM1/ml in artificial cerebrospinal fluid (CSF) (or CSF only in control groups) into the brain ventricle at constant rate (0.25 μl/h, corresponding to 1.4 μg GM1/h or 33.6 μg GM1/day) for 28 days. […] Mice were let recovery for a week, after which motor behavior tests were performed on weekly bases.
(§2) Motor behavior was evaluated with two sensitive tests that are considered the gold-standard for analysis of HD motor deficit: rotarod and horizontal ladder test (Ferrante, R. J. (2009)) To avoid that stress and anxiety would affect motor performance, mice were acclimatized for two days to training room, instruments and tasks to perform, before measuring the actual performance in each specific task. […] Latency to fall off the rotarod in each of these sessions was measured, averaged and compared across groups. For the horizontal ladder walking test, a task that assesses loss and recovery of sensori-motor functions 16, mice were recorded with a videocamera as they walked spontaneously across the ladder. […]
(§3) The pump infused a solution of 3.6 mg GM1/ml in artificial CSF (or CSF only in control groups) into the brain ventricle at constant rate (0.25 μl/h) for 4 weeks. The amount of GM1 infused was calculated in order to achieve 50 μM final concentration in the mouse CSF. […]
Method for wild-type mice: as §1, §2, §3

Turning to LIGA-20, the “protection from apoptosis (annexin V binding, caspase 3 activation)” value in the data set on STHdh^111Q/111Q cells [1] is “not effective in protecting striatal cells”; in the data set with STHdh^111Q/111Q cells [1] (listed as Liga20) it was “not protective in a genetic cell model of HD”. In [2], the “potency relative to GM1” value was “at least an order of magnitude more potent than GM1”.

With `CCCCCCCCCCCCCCCC(=O)NC(CN1CCOCC1)C(O)c1ccccc1` (stereo not shown) [PPMP, 1-phenyl-2-palmitoylamino-3-morpholino-1-propanol], the “cell susceptibility to apoptosis after inhibition of ganglioside synthesis” value in the data set with STHdh^7Q/7Q cells [3] (10 μM PPMP for 3 days, then 12 hours serum-free medium at 39° C., FIG. 6B) was “increased STHdh^7Q/7Q cell susceptibility to apoptosis to the levels observed in STHdh^111Q/111Q cells”. Also, the “Htt phosphorylation at Ser13 and S16 after inhibition of ganglioside synthesis” value in data set [4] was “decreases levels of phosphorylation at the same amino acid residues”. The “plasma membrane GM1 levels after inhibition of ganglioside synthesis” value with STHdh^7Q/7Q cells [5] (10 μM PPMP for 3 days, wild-type cells, FIG. 6A) is recorded as “reduce GM1 levels to the amount observed in STHdh^111Q/111Q cells”.

Turning to ganglioside GM1, in [6], the “phosphorylation of Htt at Ser13 and Ser16 in cerebral cortex” value is “increase in the phosphorylation of Htt at these residues”. For the same compound, the “protection from apoptosis (annexin V binding, active caspase-3)” value was “protected both wild-type and HD cells from apoptosis” in the data set with STHdh^7Q/7Q cells [3] (50 μM, serum deprivation at 39° C., wild-type cells); “protected both wild-type and HD cells from apoptosis” with STHdh^111Q/111Q cells [1] (50 μM, serum deprivation at 39° C., HD cells). In addition, the cell survival result in the data set with STHdh^7Q/7Q cells [3] (treated wild-type cells, 50 μM GM1, apoptotic conditions) is on record as “cell survival was also further augmented”. For the same compound, in the data set on STHdh^7Q/7Q cells [3] (wild-type cells pre-treated with 10 μM PPMP for 3 days), the “effect of GM1 on PPMP-induced susceptibility to apoptosis” value is “abolished PPMP effects”. For the same compound, the “susceptibility of HD cells to apoptosis compared with wild-type cells” value with STHdh^111Q/111Q cells [1] (50 μM, serum deprivation at 39° C.) was “restored normal susceptibility to apoptosis in HD cells”. The “dose-dependency of GM1 anti-apoptotic action” value with STHdh^111Q/111Q cells [1] (knock-in striatal cells (7/7 and 111/111), 6 hours in serum-free medium at 39° C., FIG. 9) is “dose-dependent”. Besides, the phospho-AKT/AKT ratio entry with AKT (STHdh^7Q/7Q cells) and in the data set with AKT (STHdh^111Q/111Q cells) was “increased the phospho-AKT/AKT ratio” throughout. Moreover, the “levels of active (phospho) AKT compared with wild-type” value in the data set with AKT (STHdh^111Q/111Q cells after GM1 administration) was “restored to normal”. For the same compound, the “mHtt phosphorylation (phospho-Ser/mHtt)” value in the data set with mHtt is listed as “increased mHtt phosphorylation”. Also, the “behavioral differences GM1 versus CSF infusion” value in the data set with wild-type mice was “No behavioral differences were noted”. In the data set with STHdh^111Q/111Q cells [7], the “plasma membrane GM1 levels after GM1 administration” value is listed as “complete restoration of GM1 levels”. In addition, in the data set on YAC128 mice (after 13 days of GM1 infusion), the “motor behavior compared with wild-type mice” value is reported as “indistinguishable from wild-type mice”. For the same compound, the “motor behavior (rotarod, horizontal ladder task) versus CSF-infused HD mice” value with YAC128 mice (intraventricular infusion 0.25 μl/h for 28 days, 3 mice per group) is given as “performed significantly better than HD control mice infused with CSF”. In the data set with STHdh^7Q/7Q cells [5] (50 μM GM1, treated wild-type cells, FIG. 5C), the “GM1 content after GM1 administration” value is recorded as “further increase of GM1 content above their normal levels”. Also, in data set [8] (Alter, 1998), the “frequency of possible adverse effects such as Guillain-Barre' syndrome (GBS)” value is recorded as “rare”. Moreover, the “safety in clinical trials” value in data set [8] (patients with stroke, Parkinson's disease, spinal cord injury) was “relatively safe to use”.

For the compound `COC(=O)[C@@]1(O)C[C@H]2O[C@]1(C)n1c3ccccc3c3c4c(c5c6ccccc6n2c5c31)C(=O)NC4` [K252a], the “effect of pan-Trk inhibitor on GM1 protective activity” value in the data set with STHdh^111Q/111Q cells [1] (200 nM K252a, 2 hours pre-incubation before GM1 and apoptotic stress, 7/7 and 111/111 cells, FIG. 10) is “GM1 protective activity was still fully preserved”.
